Results as given in BindingDB's records for doi:10.3109/14756366.2011.637200 (Kirklareli University, 2013).

Experiments:
Assay in all cases: CA Inhibition Assay
Conditions in all cases: pH 7.5; 25 °C
[1] = target: Carbonic anhydrase 1 (Homo sapiens, UniProt P00915)
[2] = target: Carbonic anhydrase 2 (Homo sapiens, UniProt P00918)
[3] = target: Carbonic anhydrase 6 (Homo sapiens, UniProt P23280)
Chain of Carbonic anhydrase 6 (P23280 whole entry): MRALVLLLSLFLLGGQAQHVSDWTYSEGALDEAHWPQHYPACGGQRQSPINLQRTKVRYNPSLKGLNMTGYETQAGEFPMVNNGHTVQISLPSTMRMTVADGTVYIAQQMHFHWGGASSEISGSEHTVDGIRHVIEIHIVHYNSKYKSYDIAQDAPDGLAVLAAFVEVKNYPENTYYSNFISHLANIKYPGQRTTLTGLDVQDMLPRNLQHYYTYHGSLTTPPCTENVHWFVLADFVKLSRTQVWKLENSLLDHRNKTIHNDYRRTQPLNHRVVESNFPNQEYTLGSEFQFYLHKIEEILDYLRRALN

Chain of Carbonic anhydrase 1 (P00915 whole entry): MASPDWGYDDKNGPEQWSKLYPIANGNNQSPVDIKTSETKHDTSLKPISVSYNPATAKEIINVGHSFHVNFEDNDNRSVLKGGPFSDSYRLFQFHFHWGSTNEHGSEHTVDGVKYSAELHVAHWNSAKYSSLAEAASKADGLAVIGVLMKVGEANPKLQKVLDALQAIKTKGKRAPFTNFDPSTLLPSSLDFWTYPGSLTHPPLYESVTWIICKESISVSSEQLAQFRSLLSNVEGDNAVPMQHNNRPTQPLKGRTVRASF

Ki [1] [nM] | Ki [2] [nM] | Ki [3] [nM] | SMILES
380 | 85 | 62 | Cc1ncc(C[n+]2csc(CCO)c2C)c(N)n1 [Vitamin B 1]
2270 | 784 | 593 | Cc1c(CCO)sc[n+]1C [CA inhibitor, 1]
1150 | 105 | 128 | Cc1c(CCO)sc[n+]1Cc1ccccc1 [CA inhibitor, 2]
